Test results as given in patent publication US20220160824A1, “COMPOUNDS FOR USE IN THE TREATMENT OF PARKINSON'S DISEASE” (UNIVERSITY OF THE WITWATERSRAND, JOHANNESBURG, priority 2018, published 2022).
One block for each compound: values may come before it.

What was measured:
SH-SY5Y cells = test: MTT cell viability assay, SH-SY5Y cells treated with α-Synuclein; assay type: cell-based; conditions: for cell viability after α-Synuclein treatment: 200 nM and 500 nM
Description: The HEK293 cell line was used as it is commonly used in Parkinson's disease (PD) research (Schlachetzki et al., 2013). The cell culture media was made up from Dulbecco's Modified Eagle Medium (DMEM) (Hyclone) and Ham's F12 with a ratio of 1:1. The mixture was supplement with 1% penicillin/streptomycin (P/S) and 15% foetal bovine serum […] to create a supplemented media that will provide the cells with essential nutrients that include growth factors and P/S to prevent contamination with bacteria and fungi. The nutrient media was renewed when it was required. The cells were cultured at in an incubator, that maintains the humidity, pH, at 37° C. and 5% CO2 atmospheric composition to mimic in vivo conditions. Once the cells reached a confluency of 80%, they were passaged by washing with phosphate-buffered saline (PBS) followed by resuspension by the addition of trypsin-EDTA. Once the cells were re-suspended media was added to inactivate the trypsin and the cell suspension was diluted into a new flask. Fresh media was added to both flasks. Both transfected and non-transfected cells were harvested for further applications. […] SH-SY5Y cells were also received after transfection was confirmed. The cells were maintained in the same conditions as the HEK293 cells. The SH-SY5Y cells were used for the […] cell viability assay. LRP::FLAG overexpressing HEK293 cells in the presence of 1-Methyl-4-phenylpyridinium iodide (MPP+), a PD inducer, was also investigated. Late stage colorectal carcinoma cells (DLD-1) cells were used for certain confocal microscopy studies with parkin protein.
The effects of treatment of cells with a specific substance or protein on cell viability can be determined by the MTT (3-(4,5-dimethylthiazol-2-yl)-2,5-diphenyltetrazolium bromide) assay (Riss et al., 2016). […] The samples were then added to a 96-well plate at 100 μl in duplicates and the absorbance was read at 570 nm using an ELISA plate reader. High absorbance is indicative of a high number of viable cells. […]

HEK293 cells = test: MTT cell viability assay, HEK293 cells treated with α-Synuclein; assay type: cell-based, human; conditions: for cell viability after α-Synuclein treatment: 200 nM and 500 nM
Description: The effects of treatment of cells with a specific substance or protein on cell viability can be determined by the MTT (3-(4,5-dimethylthiazol-2-yl)-2,5-diphenyltetrazolium bromide) assay (Riss et al., 2016). MTT is a tetrazolium salt that is yellow in colour that is converted to the purple formazan crystals by the mitochondrial enzyme succinate dehydrogenase (Stockert et al., 2012). The succinate dehydrogenase is only active in viable cells and therefore only viable cells will convert MTT to formazan (Stockert et al., 2012). The MTT assay was chosen over other cell viability assays, such as the ATP assay, the resoazurin reduction assay and the protease viability marker assay, due to its high throughput screening. For this study, HEK293 cells were first seeded at 1.4×10^4 cells per well in a 24-well plate while SH-SY5Y cells were seeded at 1.8×10^4 due to a slower growth rate. The cells were then incubated overnight to allow reattachment. Cells were then treated with 200 nM and 500 nM α-Synuclein, in order to induce a PD-like state. Following treatment, the cells were incubated for 48 hours to determine the effects of α-Synuclein on cell viability […]. The known apoptosis inducer, protocatechuic acid (PCA) was used as the positive control. Following incubation, 200 μl of […] was then added to each well and incubated for 2 hours at 37° C. to allow the formation of formazan crystals. The remaining MTT was discarded and the formazan crystals were dissolved by the addition of 200 μl dimethyl sulfoxide (DMSO). The samples were then added to a 96-well plate at 100 μl in duplicates and the absorbance was read at 570 nm using an ELISA plate reader. High absorbance is indicative of a high number of viable cells.
Statistical evaluation of the data was conducted by performing the […] with a confidence interval of 95% and as a result, results were considered significant when the p-value was lower than 0.05 was considered significant (*p<0.05, **p<0.01 and ***p<0.001) (Johnston, 1970).

[1] = target: 37 kDa/67 kDa laminin receptor precursor/high affinity laminin receptor (LRP/LR) (human) (UniProt P08865); test: cell-based or functional assay

Sequence of parkin (O60260 whole entry): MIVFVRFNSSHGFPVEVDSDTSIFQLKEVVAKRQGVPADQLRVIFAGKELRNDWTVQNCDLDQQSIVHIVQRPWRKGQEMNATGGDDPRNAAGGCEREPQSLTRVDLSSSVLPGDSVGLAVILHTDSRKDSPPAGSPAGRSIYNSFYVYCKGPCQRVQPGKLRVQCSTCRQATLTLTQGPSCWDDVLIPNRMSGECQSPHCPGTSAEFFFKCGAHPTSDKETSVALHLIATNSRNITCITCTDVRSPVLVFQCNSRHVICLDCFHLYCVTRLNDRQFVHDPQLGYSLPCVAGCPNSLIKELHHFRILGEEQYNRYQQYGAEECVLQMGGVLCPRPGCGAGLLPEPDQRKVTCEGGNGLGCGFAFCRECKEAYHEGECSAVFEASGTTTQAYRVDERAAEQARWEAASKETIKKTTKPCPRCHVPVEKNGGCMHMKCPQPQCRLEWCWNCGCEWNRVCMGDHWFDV

Compound: O=C(O)c1ccc(O)c(O)c1 [PCA, protocatechuic acid]
cell viability with positive control (SH-SY5Y cells; SH-SY5Y transfected and non-transfected cell lines): significant decrease
cell viability with positive control (HEK293 cells; HEK293 transfected and non-transfected cell lines): significant decrease

percent of LRP colocalizing with parkin, confocal microscopy, DLD-1 cells overexpressing LRP::FLAG (total LRP stained) [1]: 22%
percent of LRP/LR colocalizing with parkin, confocal microscopy, DLD-1 cells [1]: 54%
percent of parkin colocalizing with LRP, confocal microscopy, DLD-1 cells overexpressing LRP::FLAG (total LRP stained) [1]: 99%
percent of parkin colocalizing with LRP/LR, confocal microscopy, DLD-1 cells [1]: 59%
Compound: parkin (from UniProt O60260 1-465) (enzyme)

Compound: α-Synuclein
cell viability after α-Synuclein treatment (SH-SY5Y cells; LRP::FLAG overexpressing and non-transfected SH-SY5Y cells): no decrease
cell viability after α-Synuclein treatment (SH-SY5Y cells; SH-SY5Y non-transfected cells, 48 hours): no significant increase or decrease
cell viability after α-Synuclein treatment (HEK293 cells; HEK293 non-transfected cells, 48 hours): decreased significantly
cell viability after α-Synuclein treatment (HEK293 cells; LRP::FLAG overexpressing and non-transfected HEK293 cells): slight decrease
